Experimental data published in US5612317A, “Method for delivering estrogen” (priority 1994, dated 1997).

Columns and labels:
[1] = injected into normal women; cited from earlier work
[2] = Side-effects and vaginal bleeding in ovariectomized rats dosed orally for two weeks; assay type: in vivo
From the text: Based on the results in rats and humans with the model vitamin D-3β-glucoside and experience with giving estradiol-3-(β-glucoside) to ovariectomized rats, there is no indication of potential additive or multiplicative toxicity.

[3] = Circulating concentration of 17β-estradiol and estrone in ovariectomized rats after daily oral dosing for two weeks (radioimmunoassay); assay type: in vivo; conditions: six ovariectomized rats per group
Description: De-conjugation of estradiol-3-(β-glucoside) to estradiol will occur slowly in peripheral tissues, and therefore, will maintain circulating levels of estradiol at a more physiologic level for a longer period of time. A study in humans with the vitamin D-3β-glucoside was conducted as a model compound. The blood level of vitamin D after an equimolar dose of vitamin D3 and vitamin D3 -3β-glucoside was compared. […] Thus, from this single dose vitamin D-glucoside study, there would not appear to be any hazard to the prolonged duration of action of the estradiol resulting from the slow de-conjugation of the estradiol-3-(β-glucoside). A study in ovariectomized rats was also conducted to determine the blood level of estradiol and estrone after receiving three different doses of either estradiol or estradiol-3-(β-glucoside) orally each day for two weeks. […] Thus, estradiol-3-(β-glucoside) will increase circulating concentrations of estradiol.
In vivo rat studies were carried out where estradiol-3-(β-glucoside) was given orally for two weeks to ovariectomized rats.
Circulating concentration of 17β-estradiol and estrone
in six ovariectomized rats per group that received an oral
dose of either 17β-estradiol or 17β-estradiol-3 β-
glucoside (estradiol-glc) each day for two weeks.

estradiol receptor = conditions: "there is evidence"; no method given; cited from earlier work
[4] = Incubation of 3H-vitamin D3-glucoside with rat kidney homogenate, reverse phase HPLC; assay type: in vitro ADME; conditions: 3 hours at 37° C
Description: FIG. 1C depicts reverse phase HPLC (2% H2 O/methanol, 1.5 ml/min) of ^3 H-vitamin D3 -glucoside after incubation with rat kidney homogenate for 3 hours at 37° C.
(§1) A study was conducted whereby ^3 H-vitamin D3 -3β-glucoside was incubated with intestine and kidney homogenates. […] Therefore, the same results for estradiol-3β-glucoside would be expected since vitamin D and estradiol are both fat soluble sterols.

[5] = Incubation of 3H-vitamin D3-glucoside with rat intestinal homogenate, reverse phase HPLC; assay type: in vitro ADME; conditions: 3 hours at 37° C
Description: FIG. 1A and FIG. 1B depict reverse phase HPLC (2% H2 O/methanol, 1.5 ml/min) of ^3 H-vitamin D3 -glucoside before (FIG. 1A) and after (FIG. 1B) incubation with rat intestinal homogenate for 3 hours at 37° C.
as §1

[6] = listed as 3 H-vitamin D3 -glucoside

SMILES: C[C@]12CC[C@@H]3c4ccc(O)cc4CC[C@H]3[C@@H]1CC[C@H]2O[C@@H]1O[C@H](CO)[C@@H](O)[C@H](O)[C@H]1O [17α-estradiol-17-glucoside]
- Metabolite recovered in urine [1]: the 3-glucuronide derivatives of each compound were recovered in the urine

SMILES: C[C@]12CC[C@@H]3c4ccc(O)cc4CC[C@H]3[C@@H]1CC[C@@H]2OC1O[C@H](CO)[C@@H](O)[C@H](O)[C@H]1O (stereo partly drawn) [17β-estradiol-17-glucoside]
- Metabolite recovered in urine [1]: the 3-glucuronide derivatives of each compound were recovered in the urine

SMILES: C[C@]12CC[C@@H]3c4ccc(O)cc4CC[C@H]3[C@@H]1CC[C@@H]2O [estradiol, 17β-estradiol, reference compound]
- Untoward side-effects or vaginal bleeding ([2]; oral, two weeks, ovariectomized rats): No untoward side-effects or vaginal bleeding was noted
- Blood concentration of estradiol ([3]; dose 1, each day for two weeks): 3.5 ± 0.7 pg/mL
- Blood concentration of estradiol ([3]; dose 10, each day for two weeks): 8.7 ± 2.1 pg/mL
- Blood concentration of estradiol ([3]; dose 15, each day for two weeks): 46.8 ± 10.4 pg/mL

SMILES: C[C@]12CC[C@@H]3c4ccc(O[C@@H]5O[C@H](CO)[C@@H](O)[C@H](O)[C@H]5O)cc4CC[C@H]3[C@@H]1CC[C@@H]2O [estradiol-glc, 17β-estradiol-3β-glucoside]
- Untoward side-effects or vaginal bleeding ([2]; rat, in vivo, po): No untoward side-effects or vaginal bleeding was noted
- Interaction with the estradiol receptor (estradiol receptor): does not interact with the estradiol receptor

SMILES: C=C1CC[C@H](O[C@@H]2O[C@H](CO)[C@@H](O)[C@H](O)[C@H]2O)C/C1=C/C=C1\CCC[C@]2(C)[C@@H]([C@H](C)CCCC(C)C)CC[C@@H]12 [vitamin D3 -3β-glucoside]
- De-conjugation of the glucoside / formation of 3H-vitamin D3 ([4]; listed as 3 H-vitamin D3 -3β-glucoside): only the kidney homogenate was capable of removing the glucoside from vitamin D3
- De-conjugation of the glucoside / formation of 3H-vitamin D3 [4, 6]: formation of ^3 H-vitamin D3
- De-conjugation of the glucoside / formation of 3H-vitamin D3 ([4]; listed as vitamin D-3β-glucoside): β-glucosidase(s) in the kidney are able to de-conjugate the β-glucoside from the vitamin D-3β-glucoside
- Metabolism of the glucoside / formation of 3H-vitamin D3 [5]: None of the vitamin D3 -3β-glucoside was metabolized in the intestinal homogenates
- Metabolism of the glucoside / formation of 3H-vitamin D3 [5, 6]: No ^3 H-vitamin D3 was formed
